For this experiment, the target named is T1, CDK5 (Inactive) (Homo sapiens, UniProt Q00535).
T1 construct: purchased Thermo Fisher Scientific (Life Technologies) SelectScreen
Briefly: SelectScreen LanthaScreen. It counts as binding. Conditions: read-out: % displacement. A digest of the protocol: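 NU5455 was profiled across the SelectScreen Broad panel of kinase activity and binding assays. Z'LYTE reactions such as CSF1R ran at apparent Km ATP, while the Adapta CAMK1 assay used ATP listed as 10. Values are given as percent.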
A general note: In TR-FRET formats the signal depends on donor and acceptor labels being close together.

T1 sequence (Q00535 whole entry): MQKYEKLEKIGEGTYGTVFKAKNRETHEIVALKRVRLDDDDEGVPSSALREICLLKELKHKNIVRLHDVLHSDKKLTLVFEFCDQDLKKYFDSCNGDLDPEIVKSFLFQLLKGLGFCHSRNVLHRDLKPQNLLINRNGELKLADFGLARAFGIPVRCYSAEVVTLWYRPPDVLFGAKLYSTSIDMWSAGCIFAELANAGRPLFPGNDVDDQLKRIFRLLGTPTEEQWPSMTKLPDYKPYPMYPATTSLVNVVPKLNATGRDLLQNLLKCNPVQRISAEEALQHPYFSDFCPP

On to `CN(C(=O)CN1CCOCC1)c1ccc2sc3c(-c4cccc5c(=O)cc(N6CC7CCC(C6)O7)oc45)cccc3c2c1` [NU5455], for which the inhibition at 1 µM was -2.1%.

(Values after paper PMC6934184, “Selective DNA-PKcs inhibition extends the therapeutic index of localized radiotherapy and chemotherapy” (The Journal of Clinical Investigation, 2019).)
